“And” between values parts separate entries of the source, which are not always exact repeats. Equal values may be shown once.
molecular target: human GOAT (ghrelin O-acyl transferase) (Homo sapiens (Human), UniProt Q96T53); experiment: Determination of hGOAT activity in HEK293 cells after incubation with test compound (acyl-ghrelin ELISA); format: cell-based; settings: HEK293 cells stably transfected with preproghrelin and human GOAT cDNA; octanoate-BSA 100 μM; 5 hours incubation; acyl-ghrelin in medium by ELISA; 8 compound concentrations
Description: Determination of hGOAT Activity in HEK293 Cells after incubation with test compound
HEK293 cells stably transfected with two expression vectors, one coding for preproghrelin cDNA and a second for the expression of human GOATcDNA are used as a cellular model. After feeding the cells with octanoic acid for 5 hours, acyl-ghrelin is measured in cell culture medium by an ELISA procedure.
Cellline: Hek293 hGOAT/PPGhrl Clone #1B8Sodium octanoate, Sigma, Cat.-No. C5038
BSA: Sigma, Cat.-No. A8806
BD Poly-D-Lysin 384-well Plates, black-clear polystyrene BD Bioscience Cat.-No. […] ELISA human acylated Ghrelin Kit purchased from Bertin Pharman (detailed composition of buffers e.g. wash-puffer, ELISA buffer not known)
All further reagents used were of highest analytical grade available.
Cells are plated with a density of 5000 cells/well in 384-well poly-D-lysin plates and incubated for 1 day at 37° C., 5% CO2 in DMEM medium, 10% FCS, 1×NEAA, Puromycin (0.5 μg/ml) and G418 (1 mg/ml). Then the medium is changed to a identical medium without FCS and containing Octanoate-BSA (final concentration 100 μM each) and compound in DMSO (final DMSO concentration 0.3%). After incubation for 5 hours acylghrelin in the medium is measured by ELISA.
The medium sample is diluted 1:25 in Elisa buffer, a 25 μl aliquot is transferred to a 384-well ELISA plate previously washed 4 times with 100 μL wash buffer, and 25 μl tracer-solution is added. After incubation overnight (˜20 h) at 4° C. temperature the plate is washed 4 times with 100 μl wash-buffer per well. Finally 50 μl Ellman's reagent is added to each well and the plate is incubated in the dark for 20 minutes. The absorbance is measured at 405 nm in an Envision multilabel reader and the amount of acylated ghrelin is calculated according to a acylated ghrelin standard curve provided in the same plate.
The analysis of the data is performed by calculation of the percentage of acyl-ghrelin produced in the presence of test compound compared to the amount of acyl-ghrelin produced in the vehicle control samples. An inhibitor of the GOAT enzyme will give values between 100% CTL (no inhibition) and 0% CTL (complete inhibition).
IC50 values are calculated with Assay Explorer or other suited software based on curve fitting of results of 8 different compound concentrations.

human GOAT (ghrelin O-acyl transferase), sequence (Q96T53 whole entry): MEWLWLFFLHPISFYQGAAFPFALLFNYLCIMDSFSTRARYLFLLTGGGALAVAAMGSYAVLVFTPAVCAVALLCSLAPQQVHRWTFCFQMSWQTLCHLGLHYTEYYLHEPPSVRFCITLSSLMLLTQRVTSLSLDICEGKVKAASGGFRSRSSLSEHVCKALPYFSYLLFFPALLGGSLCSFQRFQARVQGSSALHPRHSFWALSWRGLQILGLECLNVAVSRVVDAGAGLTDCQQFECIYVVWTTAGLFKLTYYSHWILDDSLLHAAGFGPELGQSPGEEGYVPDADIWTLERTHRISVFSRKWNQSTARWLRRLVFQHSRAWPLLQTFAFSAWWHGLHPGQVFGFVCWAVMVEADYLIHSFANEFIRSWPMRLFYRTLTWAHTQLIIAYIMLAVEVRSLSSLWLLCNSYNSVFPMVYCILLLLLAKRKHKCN

SMILES | IC50
Cc1nc2ncnn2c(N)c1Cc1ccc(OC(F)F)cc1 [Example 6.4] | 1.9 nM
COc1cc(Cc2c(C)nc3ncnn3c2N)ccc1C(F)(F)F [Example 7.5] | 0.92 nM
Cc1nc2ncnn2c(N)c1Cc1ccc(OC(F)F)c(Br)n1 [Example 4.1, 6-{[6-Bromo-5-(difluoromethoxy)pyridin-2-yl]methyl}-5-methyl-[1,2,4]triazolo[1,5-a]pyrimidin-7-amine] | 0.3 nM
Cc1nc2ncnn2c(N)c1Cc1ccc(Br)c(-n2cc(C(F)(F)F)cn2)n1 [Example 10.3] | 8.6 nM
Cc1nc2ncnn2c(N)c1Cc1ccc(C(F)(F)F)c(N)n1 [Example 3.4] | 6.5 nM
Cc1nc2ncnn2c(N)c1Cc1ccc(C(F)F)cc1 [Example 4.9] | 9.8 nM
CCOc1cc(C(F)(F)F)ccc1Cc1c(C)nc2ncnn2c1N [Example 4.5] | 2.4 nM
Cc1nc2ncnn2c(N)c1Cc1ccc(Br)c(-n2cc(F)cn2)n1 [Example 10.1, 6-{[5-Bromo-6-(4-fluoro-1H-pyrazol-1-yl)pyridin-2-yl]methyl}-5-methyl-[1,2,4]triazolo[1,5-a]pyrimidin-7-amine] | 0.68 nM
Cc1nc2ncnn2c(N)c1Cc1ccc(C(F)(F)F)cc1 [Example 6.3] | 3.4 nM
COc1nc(C(F)(F)F)ccc1Cc1c(C)nc2ncnn2c1N [Example 4.2] | 1.9 nM
Cc1nc2ncnn2c(N)c1Cc1ccc(C#N)c(NCC(F)(F)F)n1 [Example 7.6] | 0.69 nM
Cc1nc2ncnn2c(N)c1Cc1ccc(C#N)c(NCC2CC2(F)F)n1 (centres unmarked) [Example 7.10] | 6.2 nM
CCOc1nc(C(F)(F)F)ccc1Cc1c(C)nc2ncnn2c1N [Example 4.7] | 2.9 nM
Cc1nc2ncnn2c(N)c1Cc1ccc(OC(F)(F)F)c(Br)c1 [Example 4.4, 6-{[3-bromo-4-(trifluoromethoxy)phenyl]methyl}-5-methyl-[1,2,4]triazolo[1,5-a]pyrimidin-7-amine] | 1.1 nM
Cc1nc2ncnn2c(N)c1Cc1ccc(C(F)(F)F)nc1OC1CCC1 [Example 4.6] | 3 nM
Cc1nc2ncnn2c(N)c1Cc1ccc(C#N)c(OCC(C)(F)F)n1 [Example 7.4] | 1.3 nM
Cc1nc2ncnn2c(N)c1Cc1ccc(C#N)c(OCC(F)F)n1 [Example 9.1, 6-({7-Amino-5-methyl-[1,2,4]triazolo[1,5-a]pyrimidin-6-yl}methyl)-2-(2,2-difluoroethoxy)pyridine-3-carbonitrile] | 2.4 nM
Cc1nc2ncnn2c(N)c1Cc1ccc(C(F)(F)F)c(Br)c1 [Example 4.3] | 1.1 nM
Cc1nc2ncnn2c(N)c1Cc1ccc(Br)c(OC(F)F)n1 [Example 5.1, 6-{[5-Bromo-6-(difluoromethoxy)pyridin-2-yl]methyl}-5-methyl-[1,2,4]triazolo[1,5-a]pyrimidin-7-amine] | 0.13 nM
Cc1nc2ncnn2c(N)c1Cc1ccc(Br)c(OCCF)n1 [Example 8.3] | 0.3 nM
Cc1nc2ncnn2c(N)c1Cc1ccc(C#N)c(OCCF)n1 [Example 9.4] | 3.7 nM
COc1cc(C(F)(F)F)ccc1Cc1c(C)nc2ncnn2c1N [Example 6.2] | 0.69 nM
Cc1nc2ncnn2c(N)c1Cc1ccc(C#N)c(NCC(F)F)n1 [Example 7.1, 6-({7-amino-5-methyl-[1,2,4]triazolo[1,5-a]pyrimidin-6-yl}methyl)-2-[(2,2-difluoroethyl)amino]pyridine-3-carbonitrile] | 0.37 nM
Cc1nc2ncnn2c(N)c1Cc1ccc(C#N)c(OCC2(C(F)(F)F)CC2)n1 [Example 9.2] | 8.3 nM
Cc1nc2ncnn2c(N)c1Cc1ccc(OC(F)(F)F)cc1 [Example 6.1, 5-methyl-6-{[4-(trifluoromethoxy)phenyl]methyl}-[1,2,4]triazolo[1,5-a]pyrimidin-7-amine] | 3.9 nM
Cc1nc2ncnn2c(N)c1Cc1ccc(C(F)(F)F)c(N2CC(F)(F)C2)n1 [Example 3.3] | 0.32 nM and 0.76 nM
Cc1nc2ncnn2c(N)c1Cc1ccc(Br)c(-n2ccc(C(F)(F)F)n2)n1 [Example 10.2] | 2.8 nM
Cc1nc2ncnn2c(N)c1Cc1ccc(Br)c(OCC(C)(F)F)n1 [Example 1.1, 6-{[5-Bromo-6-(2,2-difluoropropoxy)pyridin-2-yl]methyl}-5-methyl-[1,2,4]triazolo[1,5-a]pyrimidin-7-amine] | 0.31 nM
Cc1nc2ncnn2c(N)c1Cc1cccc(OC(F)F)n1 [Example 4.8] | 8.8 nM

The next lines start with the values.

IC50 | SMILES
0.83 nM | Cc1nc2ncnn2c(N)c1Cc1ccc(Br)c(N2CCC(O)(C(F)(F)F)C2)n1 (centres unmarked) [Example 23.5]
4.6 nM | Cc1nc2ncnn2c(N)c1Cc1ccc(C(F)(F)F)c(C#N)n1 [Example 24.1, 6-({7-Amino-5-methyl-[1,2,4]triazolo[1,5-a]pyrimidin-6-yl}methyl)-3-(trifluoromethyl)pyridine-2-carbonitrile]
7.7 nM | Cc1nc2ncnn2c(N)c1Cc1ccc(Br)c(N2CC(C(F)(F)F)C2)n1 [Example 23.7]
4.2 nM | Cc1nc2ncnn2c(N)c1Cc1ccc(S(=O)(=O)C(F)(F)F)cc1 [Example 18.1, 5-Methyl-6-[(4-trifluoromethanesulfonylphenyl)methyl]-[1,2,4]triazolo[1,5-a]pyrimidin-7-amine]
9.3 nM | Cc1nc2ncnn2c(N)c1Cc1ccc(OC(F)(F)F)c(C(N)=O)c1 [Example 15.4]
0.68 nM | Cc1nc2ncnn2c(N)c1Cc1ccc(OC(F)(F)F)c(N=S2(=O)CCC2)c1 [Example 11.2]
4.4 nM | Cc1nc2ncnn2c(N)c1Cc1ccc(OC(F)F)c(C#N)n1 [Example 12.1, 6-({7-Amino-5-methyl-[1,2,4]triazolo[1,5-a]pyrimidin-6-yl}methyl)-3-(difluoromethoxy)pyridine-2-carbonitrile]
4.9 nM | Cc1nc2ncnn2c(N)c1Cc1ccc([S+]([O-])C(F)(F)F)cc1 (centres unmarked) [Example 19.1, 5-M ethyl-6-[(4-trifluoromethanesulfinylphenyl)methyl]-[1,2,4]triazolo[1,5-a]pyrimidin-7-amine]
0.83 nM | COC(=O)c1cc(Cc2c(C)nc3ncnn3c2N)ccc1OC(F)(F)F [Example 15.1, Methyl 5-({7-amino-5-methyl-[1,2,4]triazolo[1,5-a]pyrimidin-6-yl}methyl)-2-(trifluoromethoxy)benzoate]
9.2 nM | Cc1nc2ncnn2c(N)c1Cc1ccc(OC(F)(F)F)c(C#N)c1 [Example 20.1, 5-({7-Amino-5-methyl-[1,2,4]triazolo[1,5-a]pyrimidin-6-yl}methyl)-2-(trifluoromethoxy)benzonitrile]
1 nM | COc1cc(Cc2c(Cl)nc3ncnn3c2N)ccc1C(F)(F)F [Example 25.2]
0.36 nM | Cc1nc2ncnn2c(N)c1Cc1ccc(Br)c(N2CC(F)(F)C2)n1 [Example 23.3]
0.7 nM | Cc1nc2ncnn2c(N)c1Cc1ccc(Br)c(N2CCC(C(F)(F)F)C2)n1 (centres unmarked) [Example 23.4]
0.25 nM | Cc1nc2ncnn2c(N)c1Cc1ccc(Br)c(N2CCC(F)(F)C2)n1 [Example 23.1, 6-{[5-Bromo-6-(3,3-difluoropyrrolidin-1-yl)pyridin-2-yl]methyl}-5-methyl-[1,2,4]triazolo[1,5-a]pyrimidin-7-amine]
2.1 nM | Cc1nc2ncnn2c(N)c1Cc1cccc(-c2c[nH]nc2C(F)(F)F)n1 [Example 13.2]
0.31 nM | Cc1nc2ncnn2c(N)c1Cc1ccc(Br)c(C2(C#N)CC(F)(F)C2)n1 [Example 14.1, 1-[6-({7-Amino-5-methyl-[1,2,4]triazolo[1,5-a]pyrimidin-6-yl}methyl)-3-bromopyridin-2-yl]-3,3-difluorocyclobutane-1-carbonitrile]
3.1 nM | Cc1nc2ncnn2c(N)c1Cc1ccc(-c2c[nH]nc2C(F)(F)F)c(N)n1 [Example 16.1, 6-({7-Amino-5-methyl-[1,2,4]triazolo[1,5-a]pyrimidin-6-yl}methyl)-3-[3-(trifluoromethyl)-1H-pyrazol-4-yl]pyridin-2-amine]
8.6 nM | Cc1nc2ncnn2c(N)c1Cc1ccc(OC(F)(F)F)c(C(=O)NC(C)C)c1 [Example 15.3]
0.29 nM | Cc1nc2ncnn2c(N)c1Cc1ccc(Br)c(N2CCC(F)(F)CC2)n1 [Example 23.2]
0.83 nM | COc1cc(C(F)(F)F)ccc1Cc1c(Cl)nc2ncnn2c1N [Example 25.1, 5-Chloro-6-{[2-methoxy-4-(trifluoromethyl)phenyl]methyl}-[1,2,4]triazolo[1,5-a]pyrimidin-7-amine]
7.2 nM | Cc1nc2ncnn2c(N)c1Cc1ccc(Br)c(C(=O)OCC(F)(F)F)c1 [Example 22.1, 2,2,2-Trifluoroethyl 5-({7-amino-5-methyl-[1,2,4]triazolo[1,5-a]pyrimidin-6-yl}methyl)-2-bromobenzoate]

From patent US11583532B2, “Triazolopyrimidine derivatives for use as ghrelin o-acyl transferase (GOAT) inhibitors” (Boehringer Ingelheim International GmbH, priority 2018, dated 2023)
